Measured values reported in paper PMC3717777 (Toxins, 2013).
Entries after “also recorded” stand apart in the source; their conditions may differ. Like-named read-outs stand apart in the source and are kept apart here.

Columns and labels:
[1] = tested on: BSA; experiment: SPR (Biacore 3000) non-specific binding control with BSA alone; settings: immobilised peptide, BSA alone 100 mg L^−1
Source text: (§1) To determine affinities for the peptide binding interaction, the peptides were immobilized on two adjacent flow cells onto a CM5 Biacore chip to a level of 251 RU (octapeptide) and 227 RU (13-mer peptide). This was in order to study the binding interaction between the peptides and ochratoxin A using a Biacore 3000. A commercial ochratoxin A-BSA conjugate was used as the analyte to obtain a significant signal response for a binding event. Initially, one saturating concentration of ochratoxin A-BSA conjugate (100 mg L^−1) was injected over each immobilized peptide ligand to confirm binding (Figure 4).
Immobilization methods, especially via amine coupling, can reduce the activity of the immobilized molecule and, thus, have reduced binding capacity, which can be substantially different from the theoretical binding capacity. This is a common and known problem in binding interaction analysis. […]
The binding interaction analysis of the peptide receptor with ochratoxin A was carried out on a CM5 (carboxymethylated dextran) sensor chip at 25 °C. […] Dissociation was monitored during 10 min without dissociating agents (flowing only running buffer). The kinetic parameters of the binding reactions were determined using BIAevaluation 3.2 software.

[2] = Solid phase microtitre plate binding assay with ochratoxin A-HRP; settings: ochratoxin A-HRP serial dilutions, PBS pH 7.4, 1.5 h, room temperature, A 450 nm; for binding of ochratoxin A-HRP, amine-coupled peptide: amine coupling (NHS/EDC); for binding of ochratoxin A-HRP, thiol-coupled peptide: thiol coupling (SPDP)
Source text: Solid phase binding assay provides a platform to test the binding capacity of the designed peptides to ochratoxin A in vitro. Each peptide sequence was immobilized to the surface of a functionally modified (R2-NH) microtitre plate via either amine coupling using N-hydroxysuccinimide (NHS)/N-(3-dimethylaminopropyl)-N'-ethylcarbodiimide (EDC) coupling chemistry or thiol coupling using a heterobifunctional crosslinker (N-Succinimidyl 3-(2-pyridyldithio) propionate (SPDP)) employing the terminal cysteine residues of the peptide sequences to allow for site-directed surface attachment. Enzyme-labelled ochratoxin A-HRP was added in a concentration-dependent manner to the immobilized peptides, and the absorbance signal (blank subtracted) was compared for both peptides and immobilization techniques, as shown in Figure 3.
To test the initial binding of the peptides with ochratoxin A, the peptides were immobilized to a (NH)-functionally modified polystyrene microtitre plate via: (1) amine-coupling using a NHS/EDC linker and (2) thiol-coupling using SPDP, a hetero-bifunctional cross-linker reagent with amine and sulfhydryl groups.
Amine coupling was performed as follows: 100 mg L^−1 of each peptide solution in 10 mM carbonate buffer pH 9.6 was incubated on the NH-wells for 30 min, then 200 mM EDC and 50 mM NHS (1:1 v/v) were added and incubated for one hour. The plates were washed using PBST and blocked using 0.1 M ethanolamine for 30 min. Thiol coupling was performed via the immobilization of 1.5 mg mL^−1 SPDP in phosphate buffer (PBS) pH 7.4 incubated for 30 min at room temperature. The peptides were added at 100 mg L^−1 in a phosphate buffer pH 8.0 and incubated for another two hours at room temperature. The plates were washed using PBST and blocked for one hour using 1 g L^−1 cysteine in 1 M NaCl and 0.1 M sodium acetate, pH 4.0.
The binding of ochratoxin A-HRP conjugate in phosphate buffer pH 7.4 was performed at decreasing serial dilutions and incubated with the immobilized peptides for 1.5 h. The zero reference was determined with ochratoxin-HRP alone on 0.1 M ethanolamine blocked wells without immobilized peptide. All incubations were performed at room temperature. Detection was performed, after washing the microtiter plates using PBST, with the chromogenic HRP-substrate TMB in ready-made solution containing hydrogen peroxide. The absorbance was read after 20 min at 450 nm.

[3] = SPR (Biacore 3000) binding of ochratoxin A-BSA to immobilised peptide or antibody; settings: for Kd: Biacore 3000, CM5 chip, peptide immobilised by amine coupling, ochratoxin A-BSA 0.01–100 mg L^−1, HBS-EP pH 7.4, 25 °C, 1:1 Langmuir model, estimated; for on and off rates: Biacore 3000, ochratoxin A-BSA over immobilised ligand; for on and off rates / binding affinity (in words): HBS-EP pH 7.4, 25 °C; for binding affinity (in words): Biacore 3000, ochratoxin A-BSA
Source text: as §1
To establish the affinity of the interaction, decreasing ochratoxin A-BSA concentrations were injected onto the immobilized peptides surfaces (Figure 5).
The binding interaction analysis of the peptide receptor with ochratoxin A was carried out on a CM5 (carboxymethylated dextran) sensor chip at 25 °C. HBS-EP (0.01 M HEPES pH 7.4, 0.15 M NaCl, 3 mM EDTA, 0.005% Surfactant P20) was used as the running and dilution buffer. Peptides (100 mg L^−1 in 10 mM acetate buffer, pH 4.5) were immobilised using 0.4 M N-(3-dimethylaminopropyl)-N'-ethylcarbodiimide (EDC) and 0.1 M N-hydroxysuccinimide (NHS), applying amine coupling chemistry. In brief, a 1:1 mixture of NHS and EDC was injected as 5 μL min^−1 flow rate for 7 min, followed by injection of 75 µL peptide ligand (5 µL min^−1) for 15 min and blocking of residual binding sites with 1 M Ethanolamine, pH 8.3 (35 µL). To establish binding kinetics, various concentrations of ochratoxin A-BSA conjugate (0.01–100 mg L^−1, 60 µL in HBS-EP pH 7.4) were injected at 5 µL min^−1 over each immobilised peptide surface. BSA alone was injected as non-specific analyte control. Dissociation was monitored during 10 min without dissociating agents (flowing only running buffer). The kinetic parameters of the binding reactions were determined using BIAevaluation 3.2 software.

[4] = Water solubility of synthesized peptides; assay type: physicochemical
[5] = target: (human) albumin; settings: ochratoxin A to (human) albumin, ref [45], cited from earlier work
[6] = combinatorial peptide-phage display library; cited from earlier work
[7] = read-out: binding constant KD, aflatoxin B1; cited from earlier work
[8] = read-out: binding constant KD, aflatoxin B2; cited from earlier work

Row | Compound | non-specific binding to unconjugated BSA [1] | binding of ochratoxin A-HRP, amine-coupled peptide [2] | binding of ochratoxin A-HRP, thiol-coupled peptide [2] | Kd [3] [µM] | on and off rates [3] | binding affinity (in words) [3] | water solubility [4] | further results
1 | N'-Cys-Ser-Ile-Val-Glu-Asp-Gly-Lys-C' [octapeptide] | no non-specific binding | ochratoxin A-HRP binds | much higher binding signals | 11.8 | fast on and off rates | weak affinity interactions; also recorded: weak binding affinity | water soluble | –
2 | C[C@@H]1Cc2c(Cl)cc(C(=O)N[C@@H](Cc3ccccc3)C(=O)O)c(O)c2C(=O)O1 [ochratoxin A] | – | – | – | – | – | – | – | Kd ([5]; high affinity binding sites, read-out: KD, high affinity binding site): ~0.019 µM; Kd ([5]; weak affinity sites, read-out: KD, weak affinity site): ~1 µM
3 | N'-Gly-Pro-Ala-Gly-Ile-Asp-Gly-Pro-Ala-Gly-Ile-Arg-Cys-C' [13-mer peptide] | no non-specific binding | decreased | good binding capacity | 15.7 | fast on and off rates; also recorded: faster on and off rates | weak binding affinity | water soluble | binding affinity (in words) ([3]; listed as 13-mer): weak affinity interactions
4 | N'-Ser-Asn-Leu-His-Pro-Lys-C' | – | – | – | – | – | – | – | Kd [6]: ~2.9 µM
5 | Leu-Leu-Ala-Arg-NH2 | – | – | – | – | – | – | – | Kd [7]: ~8.3 µM; Kd [8]: ~3.4 µM
